From ChEMBL document CHEMBL1146572, “Isolation and characterization of miscellaneous secondary metabolites of Deprea subtriflora” (J Nat Prod, 2003) come the findings set out here.

Each structure is given as a SMILES string.

Test [1] is described as follows: Growth inhibition of mouse Hepa-1c1c7 cells. The test is classed as cell-based.
Test [2] is described as follows: Chemoprevention index, ratio of IC50 for mouse Hepa-1c1c7 cells to CD for NADPH:quinone reductase specific activity in mouse Hepa-1c1c7 cells. Format: functional.

Regarding `C[C@H]1C(=O)OC(C2O[C@]34C[C@H]5[C@@H](C[C@H]6O[C@H]7CC(=O)[C@@]5(C)[C@@]6(O)C7=O)[C@@H]5C[C@@H](O3)[C@@H]([C@@H]54)[C@@]2(C)O)[C@@H]1C` (stereo partly specified) [SUBTRIFLORALACTONE K], the IC50 (usually the concentration needed to halve the response being measured) in test [1] came out at 4.8 µM. In test [2], the Ratio came to 13.3.

As for `C[S+]([O-])CCCCN=C=S` (stereo unspecified) [SULFORAPHANE], half-maximal inhibition in test [1] (IC50) required 11.7 µM. Further, the Ratio in test [2] is 23.9.

For the compound `C[C@H]1CC([C@](C)(O)[C@@]2(O)CC[C@H]3[C@@H]4C[C@H]5O[C@]56[C@@H](O)C=CC(=O)[C@]6(C)[C@H]4CC[C@@]32C)OC(=O)[C@@H]1C` (stereo partly specified) [PHILADELPHICALACTONE A], in test [1], the IC50 was 0.47 µM. For the same compound, in test [2], the Ratio is recorded as 11.8.
